Measurements: paper PMC7646200 (Xenobiotica; the fate of foreign compounds in biological …, 2020)

Tests used:
[1] = in vitro; conditions: male, human, pH 7.4
[2] = in vitro; conditions: DBA/2N/Kuo, mouse, pH 7.4
[3] = in vitro; conditions: male, Wistar, rat, pH 7.4
[4] = in vitro; conditions: female, pig, pH 7.4
[5] = in vitro; conditions: female, Dutch belted, rabbit, pH 7.4
[6] = in vitro; conditions: both, Beagle, dog, pH 7.4
[7] = in vitro; conditions: female, sheep, pH 7.4
[8] = test system: rat liver cytosol; assay: Sulfonation of 7-hydroxycoumarin derivatives by rat liver cytosol; conditions: rat liver cytosol; value (95 % confidence interval)
[9] = test system: pig liver cytosol; assay: Sulfonation of 7-hydroxycoumarin derivatives by pig liver cytosol; conditions: pig liver cytosol; value (95 % confidence interval)
[10] = test system: dog liver cytosol; assay: Sulfonation of 7-hydroxycoumarin derivatives by dog liver cytosol; conditions: dog liver cytosol; for intrinsic clearance (Vmax/Km): rank among species; for Vmax: value (95 % confidence interval)
[11] = test system: human liver cytosol; assay: Sulfonation of 7-hydroxycoumarin derivatives by human liver cytosol; conditions: human liver cytosol; value (95 % confidence interval)
[12] = test system: mouse liver cytosol; assay: Sulfonation of 7-hydroxycoumarin derivatives by mouse liver cytosol; conditions: for sulfonation rate: 10 μM substrate; for Vmax: mouse liver cytosol, value (95 % confidence interval)
[13] = test system: sheep liver cytosol; assay: Sulfonation of 7-hydroxycoumarin derivatives by sheep liver cytosol; conditions: sheep liver cytosol; value (95 % confidence interval)
[14] = test system: rabbit liver cytosol; assay: Sulfonation of 7-hydroxycoumarin derivatives by rabbit liver cytosol; conditions: rabbit liver cytosol; value (95 % confidence interval)

Row | Km [1] [µM] | Km [2] [µM] | Km [3] [µM] | Km [4] [µM] | Km [5] [µM] | Km [6] [µM] | Km [7] [µM] | intrinsic clearance (Vmax/Km) [10] | sulfonation rate ([12]; female mouse liver cytosol) | sulfonation rate ([12]; male mouse liver cytosol) | Structure (SMILES) | Vmax [8] | Vmax [9] | Vmax [10] | Vmax [11] | Vmax [12] | Vmax [13] | Vmax [14]
1 | 24 | 0.11 | 1.1 | 6.4 | 0.65 | 0.62 | 0.46 | highest | Slow | Slow | Cc1c(C)c2ccc(O)cc2oc1=O [compound 4, 3,4-dimethyl-7-hydroxycoumarin] | 380 (140–620) nmol/(min * g protein) | 67 (18–120) nmol/(min * g protein) | 330 (250–420) nmol/(min * g protein) | 210 (0–1300) nmol/(min * g protein) | 17 (14–20) nmol/(min * g protein) | 300 (230–370) nmol/(min * g protein) | 13 (0–28) nmol/(min * g protein)
2 | 0.11 | 1.2 | 0.57 | 1.3 | 3.4 | 0.22 | 9.8 | highest |  |  | COc1ccc(-c2cc3ccc(O)cc3oc2=O)cc1 [compound 11, 3-(4-methoxyphenyl)-7-hydroxycoumarin] | 210 (190–260) nmol/(min * g protein) | 5.5 (3.3–7.8) nmol/(min * g protein) | 300 (150–710) nmol/(min * g protein) | 18 (12–23) nmol/(min * g protein) | 100 (84–150) nmol/(min * g protein) | 410 (190–620) nmol/(min * g protein) | 190 (100–260) nmol/(min * g protein)
